US5869456A, “Use of glutathione diesters” (priority 1995, dated 1999)
Where two headings read alike, the source gives them in different places.

Columns and labels:
[1] = system: mice; details: earlier evidence / earlier patents; cited from earlier work
[2] = system: GSH diester α-esterase activity, sheep plasma
[3] = system: GSH diester α-esterase activity, human blood plasma
[4] = system: esterase activity, rat blood plasma
[5] = system: hamsters; details: given to hamsters, present studies
[6] = system: Human Erythrocytes; details: for Thiol Levels, Total / Thiol Levels, thiol found GSH / Thiol Levels, thiol found GSH-DE / Thiol Levels, thiol found GSH-ME: erythrocyte suspension, 80 mM thiol added (one-third vol), 37° C.
Protocol: Analysis of Erythrocyte Thiol by DTNB. Cell supernatant (40 μl) was added to 1 ml of 6 mM DTNB (in 143 mM phosphate buffer, pH 7.5, containing 6.3 mM EDTA). The change in absorbance at 412 nm after 1 min was converted to a value for total thiol using a GSH standard curve. The GSH standard were prepared in a 1:2:2 mixture of PBS: 0.435M acetic acid: 10% SSA (containing 2 mM EDTA) ("RBC Mix").
(§1) Derivatization of Cell Thiols for HPLC Analysis. Derivatization mixtures are as follows: Erythrocyte Lysates: 155 μl 50 mM DTPA (pH 7), 110 μl 3.33% SSA, total 180 μl cell supernatant plus "RBC Mix", 10 μl 0.1M mBBr (in CH3 CN), 100 μl of 2M Tris·HCl (pH 9 at room temperature). The samples were placed in the dark for 20-30 minutes at room temperature; the reaction was quenched with 90 μl of glacial acetic acid. Reduced Erythocyte Lysates. 155 μl mM DTT in 50 mM DTPA (pH 7), SSA, sample, and "RBC Mix" as above Tris was added and the samples were agitated at room temperature for 25 min. 20 μl Tris and 10 μl mBBr were added; the derivatization proceeds as above.
(§2) HPLC Analysis of Cellular Thiols. Samples were chromatographed on an Altex Ultrasphere ODS reverse phase column (5μ; 4.6 mm×25 cm), using one of three gradients: (1) Buffer A: 12.8% MeOH, 0.25% acetic acid, 87.75% H2 O, pH 3.9. (2) Buffer B: 90.0% MeOH, 0.25% acetic acid, 9.75% H2 O (no pH Adjustment). (3) Gradient 1: Initial, 100% A, linear gradient to 50% B at 25 min., linear gradient to 100% B at 35 min., wash with 100% B to 39.5 min.; step to 100% A at 40 min.; equilibration with 100% A to 48 min. Gradient 2: Initial, 100% A, linear gradient to 75% B at 25 min., remainder identical to Gradient 1. Gradient 3: Initial, 100% A, linear gradient to 65% A, 35% B at 25 minutes, remainder identical to gradient 1. Flow rates were 1 ml/min.
Whole blood was collected with EDTA or DTPA (0.5M, pH 7) as anticoagulant (0.4 ml/8-12 ml blood). Plasma and buffy coat were removed after centrifugation and the erythrocytes washed 3 times with 1-2 vol PBS/5 mM DTPA or EDTA. Packed erythrocytes were suspended in one-half vol. PBS. To each suspension was one-third vol. GSH, GSH-ME or GSH-DE (80 mM, pH 7). After incubation at 37° C. for the indicated times, aliquots were removed, washed (3-4×) with PBS/EDTA/DTPA, lysed with one volume 0.435M acetic acid, protein-precipitated with one volume 10% SSA/2 mM DTPA, and centrifuged to remove cell debris. Supernatants were derivatized for HPLC analysis as described in Materials and Methods.

[7] = system: mice; details: given to mice, present studies
[8] = system: esterase activity, mouse blood plasma
[9] = system: GSH diester α-esterase activity, hamster plasma
[10] = system: Human Erythrocytes; details: whole blood + one-half volume 120 mM thiol, 30 minutes, 37° C.
Protocol: as §1, §2
Whole blood (see Table 1) was mixed with one-half volume of 120 mM GSH, GSH-ME, or GSH-DE at pH 7. The samples were incubated for 30 minutes at 37° C. and then centrifuged. After removal of plasma and buffy coat, the erythrocytes were washed and processed as described in Table 1.

[11] = system: Hamsters (liver, kidney, blood plasma); assay: Thiol levels in hamsters treated with GSH esters; format: in vivo, Syrian hamster
Protocol: Plasma Samples: 190 μl 50 mM DTPA, total 70 μ1 sample plus 3.33% SSA, 17.5 μl Tris, 10 μl of mBBr; after 20 min in the dark, 7.5 μl glacial acetic acid. Reduced Plasma Samples: 170μ 50 mM DTPA, 20 μl 16 mM DTT in 50 mM DTPA, remainder as above; the samples were agitated at room temperature for 20 min. After reduction, mBBr was added and the derivatization proceeds as above.
Other Animal Tissues. 385 μl 50 mM DTPA, 140 μl sample. 20 μl mBBr, 40 μl Tris; 20 minutes in the dark, 15 μl glacial acetic acid. Standards for all sample types were prepared using identical derivatization procedures.
Recovery of Tissues from Syrian Hamsters. Animals were anesthetized by i.p. administration of xylazine and ketamine, decapitated, and exsanguinated. Blood was mixed with 50 μl EDTA (0.5M, pH 7). Plasma was recovered by centrifugation; one-half vol. 10% SSA/0.5 mM DTPA was added. Liver: one lobe was removed, rinsed with H2 O, blotted, weighed, and homogenized in 5% SSA (0.5 Mm DTPA) (5 vol/g tissue). Kidney: one kidney was removed and decapsulated and then processed as with liver.
BSO (6 mmol/kg) was given I.P. fasted animals 2 hours prior to giving GSH, GSH-ME, or GSH-DE (5 mmol/kg); values were determined 1 hour later. […] Each value represents determinations ±S.D. on 3-4 animals.

[12] = system: GSH diester α-esterase activity, guinea pig plasma
[13] = system: Human Peripheral Blood Mononuclear Cells; details: 6 ml whole blood + 3 ml 60 mM thiol, 30 min, 37° C.; PBM
Protocol: (§3) T Cell and PBM Lysates: 120 μl 4 mM DTPA, total 360 μl sample/4.31% SSA (containing 0.5 mM DTPA), 100 μl Tris, 5μ mBBr; 20 min. in the dark, 15 μl glacial acetic acid.
as §2
6 mls. whole blood (see Table 1) was mixed with 3 ml of 60 mM GSH, GSH-ME or GSH-DE at pH 7. After 30 min incubation at 37° C., PBM were isolated by Ficoll-Hypaque density gradient centrifugation. Cells were washed with 14 ml PBS (2-3) and lysed with 4.31% SSA/0.5 mM DTPA (400 μl). After centrifugation, the supernatants were derivatized for HPLC analysis.

[14] = system: GSH diester α-esterase activity, rabbit plasma
[15] = system: Human Peripheral Blood Mononuclear Cells; details: for Thiol Levels, Total / Thiol Levels, thiol found GSH / Thiol Levels, thiol found GSH-DE / Thiol Levels, thiol found GSH-ME: isolated PBM, 0.3 ml 80 mM thiol to 0.9 ml cells, 37° C.
Protocol: as §3, §2
PBM were isolated from whole blood (see Tables 1 and 3) washed with PBS, and re-suspended in PBS. To 0.9 ml cell suspension (5-8×10^6 cells) was added 0.3 ml of 80 mM GSH, GSH-ME or GSH-DE at pH 7. After incubation at 37° C. for the indicated times, the cells were recovered by centrifugation, washed with 14 ml PBS (2×), and lysed by addition of 4.31% of SSA/0.5 mM DTPA and 2-3 freeze-thaw cycles. After centrifugation, supernatants were derivatized for HPLC analysis.

COC(=O)CNC(=O)C(CS)NC(=O)CCC(N)C(=O)OC (centres unmarked) [GSH dimethyl ester]
toxicity [1]: may be toxic

CCOC(=O)CNC(=O)[C@H](CS)NC(=O)CC[C@H](N)C(=O)OCC [GSH-DE, glutathione diethyl ester]
GSH diester α-esterase activity in plasma [2]: also lack this esterase
splitting of GSH-DE to GSH-ME in plasma (GSH diester α-esterase activity) [3]: not split to GSH-ME in plasma
splitting of GSH-DE to GSH-ME in plasma (GSH diester α-esterase activity) ([3]; listed as GSH diethyl ester): does not have detectable GSH diester α-esterase activity
conversion of GSH diethyl ester to GSH mono (glycyl) ester in blood plasma [4]: split rapidly to GSH-ME
conversion of GSH diethyl ester to GSH mono (glycyl) ester in blood plasma ([4]; listed as GSH diethyl ester): rapidly converted to GSH mono (glycyl) ester
toxicity [5]: toxicity was not observed
Thiol Levels, Total ([6]; 7 min): 9.99 ± 2.10 mM
Thiol Levels, thiol found GSH ([6]; 7 min): 1.74 ± 0.22 mM
Thiol Levels, thiol found GSH-DE ([6]; 7 min): 4.19 ± 1.47 mM
Thiol Levels, thiol found GSH-ME ([6]; 7 min): 4.01 ± 0.41 mM
Thiol Levels, Total ([6]; 45 min): 14.5 ± 2.0 mM
Thiol Levels, thiol found GSH ([6]; 45 min): 1.77 ± 0.22 mM
Thiol Levels, thiol found GSH-DE ([6]; 45 min): 3.61 ± 1.29 mM
Thiol Levels, thiol found GSH-ME ([6]; 45 min): 9.15 ± 0.49 mM
Thiol Levels, Total ([6]; 90 min): 20.1 ± 2.8 mM
Thiol Levels, thiol found GSH ([6]; 90 min): 2.02 ± 0.30 mM
Thiol Levels, thiol found GSH-DE ([6]; 90 min): 3.51 ± 1.28 mM
Thiol Levels, thiol found GSH-ME ([6]; 90 min): 14.6 ± 1.2 mM
total RBC thiol levels ([6]; summary of Table 1): about 20 mM
toxicity [7]: toxicity was not observed
conversion of GSH diethyl ester to GSH mono (glycyl) ester in blood plasma [8]: split rapidly to GSH-ME
conversion of GSH diethyl ester to GSH mono (glycyl) ester in blood plasma ([8]; listed as GSH diethyl ester): rapidly converted to GSH mono (glycyl) ester
splitting of GSH-DE to GSH-ME in plasma (GSH diester α-esterase activity) [9]: not split to GSH-ME in plasma
splitting of GSH-DE to GSH-ME in plasma (GSH diester α-esterase activity) ([9]; listed as GSH diethyl ester): lacks detectable GSH diester α-esterase activity
Thiol Levels Found, GSH [10]: 2.24 ± 0.45 mM
Thiol Levels Found, GSH-DE [10]: 8.61 ± 0.31 mM
Thiol Levels Found, GSH-ME [10]: 6.26 ± 0.50 mM
Thiol Levels Found, Total [10]: 17.1 ± 1.24 mM
raising GSH levels in liver ([11]; hamster, comparison in words (Table 6)): more effective than GSH-ME
Blood plasma levels of GSH ([11]; hamsters, 5 mmol/kg after BSO, 1 hour later): not affected
GSH diester α-esterase activity in plasma [12]: also lack this esterase
Thiol Levels Found, GSH [13]: 4.24 nmol/10^6 cells
Thiol Levels Found, GSH-DE [13]: 0.501 nmol/10^6 cells
Thiol Levels Found, GSH-ME [13]: 10.5 nmol/10^6 cells
Thiol Levels Found, Total [13]: 15.2 nmol/10^6 cells
GSH diester α-esterase activity in plasma [14]: also lack this esterase
total thiols in human PBM ([15]; in 90 min, text summary of Table 4): 33 mM
Thiol Levels, Total ([15]; 7 min, donor A): 12.1 ± 1.3 nmol/10^6 cells
Thiol Levels, thiol found GSH ([15]; 7 min, donor A): 3.64 ± 0.32 nmol/10^6 cells
Thiol Levels, thiol found GSH-DE ([15]; 7 min, donor A): 0.65 ± 0.016 nmol/10^6 cells
Thiol Levels, thiol found GSH-ME ([15]; 7 min, donor A): 8.34 ± 0.95 nmol/10^6 cells
Thiol Levels, Total ([15]; 45 min, donor B): 17.2 ± 1.4 nmol/10^6 cells
Thiol Levels, thiol found GSH ([15]; 45 min, donor B): 2.82 ± 0.25 nmol/10^6 cells
Thiol Levels, thiol found GSH-DE ([15]; 45 min, donor B): 0.320 ± 0.101 nmol/10^6 cells
Thiol Levels, thiol found GSH-ME ([15]; 45 min, donor B): 14.1 ± 1.0 nmol/10^6 cells
Thiol Levels, Total ([15]; 90 min, donor A): 33.2 ± 6.3 nmol/10^6 cells
Thiol Levels, thiol found GSH ([15]; 90 min, donor A): 5.58 ± 1.05 nmol/10^6 cells
Thiol Levels, thiol found GSH-DE ([15]; 90 min, donor A): 0.750 ± 0.141 nmol/10^6 cells
Thiol Levels, thiol found GSH-ME ([15]; 90 min, donor A): 26.9 ± 5.1 nmol/10^6 cells
